Tests used:
Test in all cases: relative viability (nuclei count vs DMSO), 5 days (fraction); higher = more cells survive
[1] = compound: CN(C/C=C/C1=CC=C(C=C1)Cl)CC2=CC=CC=C2N(CCO)S(=O)(=O)C3=CC=C(C=C3)OC [KN-93] + CS(=O)(=O)CCNCc1ccc(-c2ccc3ncnc(Nc4ccc(OCc5cccc(F)c5)c(Cl)c4)c3c2)o1 [Lapatinib] (partner 2 µM)
In short: (§1)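 Values are medians from duplicate plates. Each reflects relative viability, defined as the nuclei count of treated wells over that of vehicle wells. Lung cancer cell lines in 1536-well plates were pin-tool dosed one day after seeding with one drug alone or with a fixed anchor-drug dose plus five library-drug doses (not always all listed) in √10 steps, then fixed, stained and imaged at 4× after 5 days.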

[2] = compound: CN(C/C=C/C1=CC=C(C=C1)Cl)CC2=CC=CC=C2N(CCO)S(=O)(=O)C3=CC=C(C=C3)OC [KN-93] + CC1(C)CCC(c2ccc(Cl)cc2)=C(CN2CCN(c3ccc(C(=O)NS(=O)(=O)c4ccc(N[C@H](CCN5CCOCC5)CSc5ccccc5)c(S(=O)(=O)C(F)(F)F)c4)cc3)CC2)C1 [Navitoclax] (partner 0.5 µM)
In short: as §1

[3] = compound: CN(C/C=C/C1=CC=C(C=C1)Cl)CC2=CC=CC=C2N(CCO)S(=O)(=O)C3=CC=C(C=C3)OC [KN-93] + CS(=O)(=O)N1CCN(Cc2cc3nc(-c4cccc5[nH]ncc45)nc(N4CCOCC4)c3s2)CC1 [Pictilisib] (partner 1 µM)
In short: as §1

[4] = compound: CN(C/C=C/C1=CC=C(C=C1)Cl)CC2=CC=CC=C2N(CCO)S(=O)(=O)C3=CC=C(C=C3)OC [KN-93] + CC(C)C[C@H](NC(=O)[C@H](Cc1ccccc1)NC(=O)c1cnccn1)B(O)O [Bortezomib] (partner 0.002 µM)
In short: as §1

[5] = compound: CN(C/C=C/C1=CC=C(C=C1)Cl)CC2=CC=CC=C2N(CCO)S(=O)(=O)C3=CC=C(C=C3)OC [KN-93] + COc1cccc2cc(-c3nc([C@H]4CC[C@H](C(=O)O)CC4)n4ncnc(N)c34)[nH]c12 [OSI-027] (partner 0.5 µM)
In short: as §1

Cell Line	relative viability ([1]; first compound 0.08 µM)	relative viability ([1]; first compound 0.253 µM)	relative viability ([1]; first compound 2.53 µM)	relative viability ([1]; first compound 8 µM)	relative viability ([2]; first compound 0.08 µM)	relative viability ([2]; first compound 0.253 µM)	relative viability ([2]; first compound 2.53 µM)	relative viability ([2]; first compound 8 µM)	relative viability ([3]; first compound 0.08 µM)	relative viability ([3]; first compound 0.253 µM)	relative viability ([3]; first compound 2.53 µM)	relative viability ([3]; first compound 8 µM)	relative viability ([4]; first compound 0.08 µM)	relative viability ([4]; first compound 0.253 µM)	relative viability ([4]; first compound 2.53 µM)	relative viability ([4]; first compound 8 µM)	relative viability ([5]; first compound 0.08 µM)	relative viability ([5]; first compound 0.253 µM)	relative viability ([5]; first compound 2.53 µM)	relative viability ([5]; first compound 8 µM)
NCI-H1993	0.693	0.772	0.862	0.758	0.939	0.71	0.861	0.632	0.689	1.07	0.761	0.754	0.836	1.02	1.2	0.523	0.544	0.607	0.565	0.573
NCI-H23	1.05	1.1	1.31	0.883	0.721	0.988	0.933	0.816	0.414	0.559	0.58	0.446	0.878	1.07	1.14	0.893	0.566	0.544	0.662	0.344
HARA	0.693	0.737	0.811	0.625	0.983	1.22	1.02	0.687	0.366	0.36	0.3	0.2	1.01	1.08	1.24	0.836	0.427	0.457	0.413	0.138
NCI-H3122	1.09	1.01	1.12	0.978	1.11	1.1	1.1	0.846	0.622	0.708	0.639	0.627	1.06	1.07	1.13	1.03	0.967	1.04	1.04	0.631
HOP-62	0.94	1.23	0.985	1	1.01	0.897	1.38	0.904	0.626	0.741	0.968	0.428	0.442	1.28	0.958	0.711	0.855	1.08	1.07	0.537
UMC-11	0.839	1.12	1.32	0.626		0.345	0.312	0.22		0.976	0.962	0.278		0.919	0.799	0.197	0.442	0.526	0.488	0.314
NCI-H2023	0.804	0.858	0.932	0.239	1	1.22	1.05	0.789	0.3	0.212	0.22	0.167	0.971	0.955	1.04	0.448	0.361	0.359	0.345	0.211
NCI-H1651	0.732	1.02	0.914	0.664	0.997	1.08	1.09	0.482	0.45	0.658	0.532	0.477	0.976	1.03	0.987	0.805	0.588	0.73	0.749	0.423
COR-L 105	0.451	0.318	0.318	0.367	0.733	0.639	0.731	0.514	0.413	0.354	0.388	0.29	0.798	0.836	0.914	0.378	0.618	0.771	0.588	0.437
NCI-H520		0.904	1.05	0.727		1.13	1.23	0.878		0.32	0.297	0.26		0.883	0.914	0.511	0.287	0.289	0.279	0.205
NCI-H2347	0.932	0.921	1.17	0.595	0.696	0.843	0.794	0.543	0.572	0.616	0.696	0.543	1.27	0.741	0.828	0.745	0.379	0.318	0.371	0.339

— the supplement of paper PMC10307832
